From ChEMBL document CHEMBL1150835, “In vitro antiplasmodial activity of extracts of Tristaniopsis species and identification of the active constituents: ellagic acid and 3,4,5-trimethoxyphenyl-(6'-O-galloyl)-O-beta-D-glucopyranoside” (J Nat Prod, 2001)
In brackets after ≈: the same amount, converted by molar mass.

What was measured:
[1] = system: Plasmodium falciparum; test: Antiplasmodial activity after 24 hrs against chloroquine-resistant, mefloquine-sensitive Plasmodium falciparum W2 infected human erythrocytes by [G-3H]hypoxanthine uptake; assay type: functional, organism-based; details: W2, 24 h
[2] = system: Plasmodium falciparum; test: Antiplasmodial activity after 24 hrs against chloroquine-sensitive, mefloquine-resistant Plasmodium falciparum D6 infected human erythrocytes by [G-3H]hypoxanthine uptake; assay type: functional, organism-based; details: D6, 24 h
[3] = Cytotoxicity against HSF assessed as decrease in proliferation at 100 uM by MTT assay; design: scale not given: the % may be the effect or the level left; details: human
[4] = (§1) Cytotoxicity against human HepG2 cells assessed as decrease in proliferation at 100 uM by MTT assay; assay type: cell-based; details: HepG2 cells, read-out: Activity
[5] = system: HepG2; test: as §1; assay type: cell-based; details: hepg2, 100 µM

With `OC(c1cc(C(F)(F)F)nc2c(C(F)(F)F)cccc12)C1CCCCN1` (configuration not stated) [MEFLOQUINE] the IC50 [1] was 0.00136 µg/mL (≈ 0.00359 µM).

For `O=C(O)c1cc(O)c(O)c(O)c1` [GALLIC ACID], the IC50 [2] was > 5 µg/mL.

For `O=C(O)c1ccc(O)cc1` [PARABEN], the IC50 [2] was > 5 µg/mL.

`O=c1oc2c(O)c(O)cc3c(=O)oc4c(O)c(O)cc1c4c23` [ELLAGIC ACID] gave an IC50 [1] of 0.103 µg/mL (≈ 0.341 µM), an IC50 [2] of 0.145 µg/mL (≈ 0.48 µM) and an Activity [3] of 20%. For the same compound, the inhibition at 100 µM [4] was 9%.

For `O=C(O)c1ccc(O)c(O)c1` [PROTOCATECHUIC ACID], the IC50 [2] was > 5 µg/mL.

For `COc1cc(O[C@@H]2O[C@H](COC(=O)c3cc(O)c(O)c(O)c3)[C@@H](O)[C@H](O)[C@H]2O)cc(OC)c1OC`, the IC50 [1] was 1.58 µg/mL (≈ 3.18 µM), the IC50 [2] was 1.75 µg/mL (≈ 3.5 µM) and the Activity [3] was “Non-toxic”. For the same compound, the Activity [5] was “Non-toxic”.
